Experimental data: PMC5522258 (Oncotarget, 2017)
Where “and” joins values, the source holds several entries; their conditions need not be identical. Equal values may be shown once. Read-outs that look alike come from different tables or passages of the source.

Legend:
[1] = target: T1, pooled HLMs (UGT1A1*28*28 allelic variant, 7/7) (Homo sapiens, UniProt P22309)
T1 sequence (P22309 26-533): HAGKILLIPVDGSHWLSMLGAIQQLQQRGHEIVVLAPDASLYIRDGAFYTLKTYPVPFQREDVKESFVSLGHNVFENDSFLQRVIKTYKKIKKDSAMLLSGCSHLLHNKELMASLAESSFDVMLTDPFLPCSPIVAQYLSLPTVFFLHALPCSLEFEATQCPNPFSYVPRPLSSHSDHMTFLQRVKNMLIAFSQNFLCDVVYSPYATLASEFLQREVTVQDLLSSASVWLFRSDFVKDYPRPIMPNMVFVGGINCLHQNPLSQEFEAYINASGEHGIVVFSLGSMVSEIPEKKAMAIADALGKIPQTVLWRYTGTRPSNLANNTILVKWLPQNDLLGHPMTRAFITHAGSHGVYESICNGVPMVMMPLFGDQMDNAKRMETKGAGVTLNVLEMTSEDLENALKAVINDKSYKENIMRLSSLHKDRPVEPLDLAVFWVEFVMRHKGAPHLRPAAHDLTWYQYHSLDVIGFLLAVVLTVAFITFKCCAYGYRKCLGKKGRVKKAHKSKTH
Experimental: (§3) Ten microliter aliquots were injected into a high-performance liquid chromatograph assay system (Agilent 1100, Germany) with tandem mass spectrometric detection (API 4000 triple-quadrupole mass spectrometer; AB Sciex, Concord, Canada). Baseline separation of the analytes was achieved on the Alltima C18 (150 mm x 2.1 mm, 5 μm) column. The mobile phase A and B consisted of 100% acetonitrile and 0.1% formic acid, respectively.
(§4) After pre-incubation, the reaction was started with the addition of UGT1A1 or pooled HLMs (0.5 mg/mL). Reaction mixtures were incubated at 37°C for 30 minutes.
(§5) All experiments were carried out in triplicate. SN-38G formation velocity (ν) was calculated as Cm, 30 min/incubation time/microsomal protein concentration, where Cm, 30 min was the metabolite concentration after 30 min incubation. Plots of substrate concentration, S (X axis) versus ν (Y axis) were then constructed. Km and Vmax were calculated by the Michaelis-Menten Equation 1 below using GraphPad software v5.01 (GraphPad Software, Inc., San Diego, CA, USA). The kinetic parameter Vmax/Km, which is equivalent to intrinsic clearance (CLint) (Equation 2), was derived from the slope of the plot of the rate of product formation versus substrate concentration. Comparisons of CLint between two groups were performed by a paired t-test.

[2] = target: T2, pooled HLMs (UGT1A1*1*28 allelic variant, 6/7) (Homo sapiens, UniProt P22309)
T2 sequence (P22309 26-533): T1 sequence (P22309 26-533)
Experimental: as §3, §4, §5

UGT1A1 [3] = target: T3, UGT1A1 (Homo sapiens, UniProt P22309); experiment: SN-38 glucuronidation (SN-38G formation) by human recombinant UGT1A1, with and without HDACi; assay type: in vitro ADME; conditions: for decrease of CLint: p < 0.05
T3 sequence (P22309 26-533): T1 sequence (P22309 26-533)
Experimental: (§1) UGT1A1, UGT1A6 and UGT1A7 were chosen since these UGTs could be responsible for glucuronidating panobinostat.
(§2) All experiments were carried out in triplicate. […] Data were considered statistically significant when p < 0.05.

[4] = tested on: pooled HLMs (50 donor pool, wild-type 6/6 genotype); experiment: SN-38 glucuronidation by pooled HLMs, 50 donor pool (wild type, 6/6), with and without belinostat; assay type: in vitro ADME, human; conditions: for decrease of CLint: 50 donor pool HLMs (6/6), p < 0.05
Experimental: as §2

[5] = cited from earlier work
UGT1A6 = target: T4, UGT1A6 (Homo sapiens, UniProt P19224); experiment: SN-38 glucuronidation by human recombinant UGT1A6, with and without panobinostat; assay type: in vitro ADME; conditions: UGT1A6, panobinostat 20 and 200 nmol/L; CLint increases insignificant (p > 0.05)
T4 construct: purchased BD Gentest
T4 sequence (P19224 27-532): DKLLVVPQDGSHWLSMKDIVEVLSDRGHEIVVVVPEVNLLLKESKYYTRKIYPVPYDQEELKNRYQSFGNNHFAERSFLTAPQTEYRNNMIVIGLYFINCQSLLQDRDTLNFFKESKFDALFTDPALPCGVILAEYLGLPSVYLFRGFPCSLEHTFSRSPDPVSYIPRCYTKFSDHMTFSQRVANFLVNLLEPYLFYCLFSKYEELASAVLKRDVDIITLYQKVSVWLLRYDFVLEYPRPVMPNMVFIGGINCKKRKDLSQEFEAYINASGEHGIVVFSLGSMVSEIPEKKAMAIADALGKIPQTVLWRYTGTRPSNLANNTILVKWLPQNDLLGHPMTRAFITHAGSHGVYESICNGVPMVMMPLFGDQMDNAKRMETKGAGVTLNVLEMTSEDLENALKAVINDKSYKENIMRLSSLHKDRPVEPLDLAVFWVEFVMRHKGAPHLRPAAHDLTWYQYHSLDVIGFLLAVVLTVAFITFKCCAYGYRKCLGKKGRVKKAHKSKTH
Experimental: as §1, §2

UGT1A7 = target: T5, UGT1A7 (Homo sapiens, UniProt Q9HAW7); experiment: SN-38 glucuronidation by human recombinant UGT1A7, with and without panobinostat; assay type: in vitro ADME; conditions: UGT1A7, panobinostat 20 and 200 nmol/L; CLint increases insignificant (p > 0.05)
T5 construct: purchased BD Gentest
T5 sequence (Q9HAW7 26-530): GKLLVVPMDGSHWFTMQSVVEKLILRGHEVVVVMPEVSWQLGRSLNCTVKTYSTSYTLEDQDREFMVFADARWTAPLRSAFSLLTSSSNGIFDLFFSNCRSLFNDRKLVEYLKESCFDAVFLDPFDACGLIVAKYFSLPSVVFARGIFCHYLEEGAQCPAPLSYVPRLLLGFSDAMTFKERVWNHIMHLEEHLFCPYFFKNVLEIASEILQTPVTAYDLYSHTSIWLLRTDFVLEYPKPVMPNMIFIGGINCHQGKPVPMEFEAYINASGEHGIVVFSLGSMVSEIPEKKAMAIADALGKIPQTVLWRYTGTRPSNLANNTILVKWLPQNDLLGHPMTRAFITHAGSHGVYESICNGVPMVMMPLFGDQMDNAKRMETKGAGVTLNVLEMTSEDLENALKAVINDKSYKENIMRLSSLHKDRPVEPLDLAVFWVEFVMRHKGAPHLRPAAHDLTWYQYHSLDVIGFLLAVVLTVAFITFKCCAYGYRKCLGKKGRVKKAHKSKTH
Experimental: as §1, §2

UGT1A1 [6] = target: T3, UGT1A1; experiment: in vitro; conditions: pooled liver microsomes, UGT1A1*28*28 (7/7) genotype, pH 7.4
Experimental: as §3, §4, §5

[7] = more potent than irinotecan; cited from earlier work
UGT1A1 [8] = experiment: SN-38 glucuronidation by pooled HLMs, 50 donor pool (wild type, 6/6), with and without belinostat; assay type: in vitro ADME, human; conditions: human, pH 7.4; 50 donor pool HLMs (6/6), without belinostat; read-out: intrinsic clearance (CLint) of SN-38G formation
Experimental: as §2

UGT1A9 = target: T6, UGT1A9 (Homo sapiens, UniProt O60656); experiment: SN-38 glucuronidation by human recombinant UGT1A9, with and without vorinostat; assay type: in vitro ADME
T6 construct: purchased BD Gentest
T6 sequence (O60656 26-530): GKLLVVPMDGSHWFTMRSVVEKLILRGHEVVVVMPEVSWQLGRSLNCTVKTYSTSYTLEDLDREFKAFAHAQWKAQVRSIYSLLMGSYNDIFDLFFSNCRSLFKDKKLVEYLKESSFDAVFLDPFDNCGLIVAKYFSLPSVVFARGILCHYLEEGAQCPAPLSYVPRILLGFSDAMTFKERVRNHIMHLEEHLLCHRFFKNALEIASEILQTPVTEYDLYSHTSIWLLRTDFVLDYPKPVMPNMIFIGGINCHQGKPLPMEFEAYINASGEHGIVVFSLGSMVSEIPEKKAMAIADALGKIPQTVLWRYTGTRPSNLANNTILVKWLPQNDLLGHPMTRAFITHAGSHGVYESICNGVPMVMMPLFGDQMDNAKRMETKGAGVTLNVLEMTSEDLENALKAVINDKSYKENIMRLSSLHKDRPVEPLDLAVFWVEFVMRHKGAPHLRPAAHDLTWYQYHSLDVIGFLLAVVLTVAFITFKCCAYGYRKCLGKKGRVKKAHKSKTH
Experimental: as §2

UGT1A1 [9] = target: T3, UGT1A1; experiment: in vitro; conditions: pooled liver microsomes, UGT1A1*1*28 (6/7) genotype, pH 7.4
Experimental: as §3, §4, §5

With `O=C(/C=C/c1cccc(S(=O)(=O)Nc2ccccc2)c1)NO` [belinostat] the inhibition type ([1]; SN-38 glucuronidation by HLMs (7/7)) was “non-competitive inhibition”, the “decrease of SN-38G formation rate compared to wild type” value ([1]; UGT1A1*28*28 (7/7) HLMs vs wild type 6/6, both with belinostat 200 μmol/L) was ~ 64% and ~ 68% and the “decrease of CLint” value ([1]; UGT1A1*28*28 (7/7) HLMs, belinostat 200 μmol/L vs none, p < 0.05) was 75%. For the same compound, the “rate of SN-38G formation (Vmax)” value ([1]; UGT1A1*28*28 (7/7) HLMs, with belinostat 200 μmol/L) was 3.30 pmol/min/mg, the inhibition type ([2]; SN-38 glucuronidation by HLMs (6/7)) was “non-competitive inhibition” and the “decrease of SN-38G formation rate compared to wild type” value ([2]; UGT1A1*1*28 (6/7) HLMs vs wild type 6/6, both with belinostat 200 μmol/L) was ~ 64%. For the same compound, the “decrease of CLint” value ([2]; UGT1A1*1*28 (6/7) HLMs, belinostat 200 μmol/L vs none, p < 0.05) was 79%, the “rate of SN-38G formation (Vmax)” value ([2]; UGT1A1*1*28 (6/7) HLMs, with belinostat 200 μmol/L) was 3.77 pmol/min/mg and the inhibition type (UGT1A1 [3]; SN-38 glucuronidation by UGT1A1) was “non-competitive”. The “interaction with irinotecan (SN-38 glucuronidation)” value (UGT1A1 [3]; belinostat 10 μmol/L, simulating oral dosing) was “would not have significant interactions”, the “decrease of CLint” value (UGT1A1 [3]; recombinant UGT1A1, belinostat 100 μmol/L vs no belinostat) was ~ 62% and the “decrease of CLint” value (UGT1A1 [3]; recombinant UGT1A1, belinostat 200 μmol/L vs no belinostat) was 81%. For the same compound, the “Vmax of SN-38 glucuronidation” value (UGT1A1 [3]; recombinant UGT1A1, with belinostat (abstract: 100 and 200 µmol/L; lowest value, taken as 200 µmol/L)) was 1.95 pmol/min/mg, the “decrease of CLint” value ([4]; belinostat 100 μmol/L vs none) was 56% and the “decrease of CLint” value ([4]; belinostat 200 μmol/L vs none) was 68%. The “SN-38 glucuronidation activity (Vmax)” value ([4]; HLMs wild type 6/6, with belinostat 200 µmol/L) was 10.54 pmol/min/mg, the inhibition type ([4]; SN-38 glucuronidation by HLMs (6/6)) was “non-competitive inhibition” and the Cmax ([5]; high-dose intravenous administration) was 200 µM. The Cmax ([5]; oral administration) was 10 µM.
In the case of `Cc1[nH]c2ccccc2c1CCNCc1ccc(/C=C/C(=O)NO)cc1` [panobinostat], the “inhibitory effect on SN-38 glucuronidation” value (shortened to “inhibitory effect”) (UGT1A6) is reported as “not found to have any inhibitory effect”, the “inhibitory effect” value (UGT1A7) is reported as “not found to have any inhibitory effect” and the “inhibitory effect” value (UGT1A1 [3]; UGT1A1, panobinostat 20 and 200 nmol/L, CLint increases insignificant (p > 0.05)) is reported as “not found to have any inhibitory effect”. The Cmax ([5]; intravenous administration) was 0.2 µM and the Cmax ([5]; oral administration) was 0.02 µM.
In the case of `CCc1c2c(nc3ccc(O)cc13)-c1cc3c(c(=O)n1C2)COC(=O)[C@]3(O)CC` [SN-38, 7-ethyl-10-hydroxycamptothecin], the microsomal CLint (UGT1A1 [6]) is given as 5.4 µL/min/mg, the “potency relative to irinotecan” value [7] is given as 100-1000 times and the microsomal CLint (UGT1A1 [3]; human, pH 7.4, recombinant UGT1A1, without belinostat, read-out: intrinsic clearance (CLint) of SN-38G formation) is given as 21.6 µL/min/mg. For the same compound, the microsomal CLint (UGT1A1 [8]) was 81.2 µL/min/mg, the “SN-38 glucuronidation activity (Vmax)” value ([4]; HLMs wild type 6/6, without belinostat) was 41.13 pmol/min/mg and the microsomal CLint (UGT1A9; human, recombinant UGT1A9, read-out: CLint of SN-38G) was 7.48 µL/min/mg. The microsomal CLint (UGT1A1 [9]) was 29.2 µL/min/mg.
With `O=C(CCCCCCC(=O)Nc1ccccc1)NO` [vorinostat] the “inhibition of UGT1A9 (SN-38 glucuronidation)” value (UGT1A9; vorinostat 2 µmol/L (therapeutic concentration)) was “no significant inhibition”.
